These are literature values, as cited in US20100322880A1, “UVA FILTERS BASED ON ASCORBIC ACID DERIVATIVES” (Merck Patent GmbH, priority 2008, published 2010).

The subject of this series is prolyl-4-hydroxylase. The conditions noted are these: for supporting the activity of the enzyme prolyl-4-hydroxylase: literature statement, no figures.

On to `CC(=O)Oc1ccccc1C(=O)OC[C@H](OC(=O)c1ccccc1OC(C)=O)[C@H]1OC(=O)C(O)=C1O` [O^5O^6-bis(2-acetoxybenzoyl) L-ascorbate], for which the “supporting the activity of the enzyme prolyl-4-hydroxylase” value is “capable of supporting the activity”. Besides, the “affinity to the enzyme” value (disubstituted compared with the monosubstituted compound) is “lower affinity”.
As to `CC(=O)Oc1ccccc1C(=O)OC[C@H](O)[C@H]1OC(=O)C(O)=C1O` [O^6-(2-acetoxybenzoyl) L-ascorbate], the “supporting the activity of the enzyme prolyl-4-hydroxylase” value is on record as “capable of supporting the activity”.
